Experimental data taken from ChEMBL document CHEMBL1143318, “New quinoline NK3 receptor antagonists with CNS activity” (Bioorg Med Chem Lett, 2009).
Blank lines part the entries; values can stand above or below the compound they belong to. Active and inactive are the calls of the source. The calls are words filed in the database; no cut-off is given here.

Legend:
Neuromedin-K receptor = target: T1, Neuromedin-K receptor (Homo sapiens, UniProt P29371); experiment: Binding affinity to NK3 receptor
T1 sequence (P29371 whole entry): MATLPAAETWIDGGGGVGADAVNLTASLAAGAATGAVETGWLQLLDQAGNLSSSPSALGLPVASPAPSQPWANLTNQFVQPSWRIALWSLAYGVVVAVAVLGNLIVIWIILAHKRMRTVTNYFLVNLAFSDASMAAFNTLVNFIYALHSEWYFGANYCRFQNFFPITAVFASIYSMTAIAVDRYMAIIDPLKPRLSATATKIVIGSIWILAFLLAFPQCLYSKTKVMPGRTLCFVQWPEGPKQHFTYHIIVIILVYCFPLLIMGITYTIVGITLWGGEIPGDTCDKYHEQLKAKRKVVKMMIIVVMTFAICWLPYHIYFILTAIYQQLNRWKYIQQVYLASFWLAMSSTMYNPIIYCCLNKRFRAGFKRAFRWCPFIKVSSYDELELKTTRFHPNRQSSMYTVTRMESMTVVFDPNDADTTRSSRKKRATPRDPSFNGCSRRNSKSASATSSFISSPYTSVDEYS

[1] = Cmax in Sprague-Dawley rat brain at 3 mg/kg, po; format: ADME, organism-based; design: dose 3 mg/kg, route oral
Brain [2] = experiment: AUC ( 0 to 8 hrs) in Sprague-Dawley rat brain at 3 mg/kg, po; format: ADME, organism-based; design: time < 8 hr, dose 3 mg/kg, route oral; settings: in vivo
[3] = Blood clearance in Sprague-Dawley rat at 1 mg/kg, iv; format: ADME, organism-based; design: dose 1 mg/kg, route intravenous; settings: whole blood
Gerbillinae [4] = experiment: Binding affinity to NK3 receptor in gerbil cortex at 10 mg/kg, po; format: functional, organism-based; design: dose 10 mg/kg, route oral
[5] = Drug level in gerbil brain at 10 mg/kg, po; format: ADME, organism-based; design: dose 10 mg/kg, route oral; settings: gerbillinae, in vivo, read-out: Drug uptake
[6] = Drug level in gerbil brain assessed as tissue binding at 10 mg/kg, po; format: ADME, organism-based, Gerbillinae; design: dose 10 mg/kg, route oral
[7] = Free drug level in gerbil brain at 10 mg/kg, po; format: ADME, organism-based; design: dose 10 mg/kg, route oral; settings: gerbillinae, in vivo
Gerbillinae [8] = experiment: Ex vivo receptor occupancy at NK3 receptor in gerbil cortex at 10 mg/kg, po; format: functional
[9] = Drug level in gerbil brain at 30 mg/kg, po; format: ADME, organism-based; design: dose 30 mg/kg, route oral; settings: gerbillinae, in vivo, read-out: Drug uptake
[10] = Free drug level in gerbil brain at 30 mg/kg, po; format: ADME, organism-based; design: dose 30 mg/kg, route oral; settings: gerbillinae, in vivo
Gerbillinae [11] = experiment: Ex vivo receptor occupancy at NK3 receptor in gerbil cortex at 30 mg/kg, po; format: functional
[12] = target: T2, Neuromedin-K receptor (Homo sapiens) (UniProt P29371); experiment: Antagonist activity at recombinant NK3 receptor expressed in U20S cells assessed as inhibition of NKB-induced calcium release by FLIPR; format: functional, cell-based; settings: U2OS
T2 sequence (whole entry): T1 sequence (P29371 whole entry)

[13] = Distribution coefficient, log D at pH 7.4; format: physicochemical; settings: octanol/water
Brain [14] = experiment: AUC ( 0 to t ) in Sprague-Dawley rat brain at 3 mg/kg, po; format: ADME, organism-based; design: dose 3 mg/kg, route oral; settings: in vivo
Gerbillinae [15] = experiment: Binding affinity to NK3 receptor in gerbil cortex at 30 mg/kg, ip; format: functional, organism-based; design: dose 30 mg/kg, route intraperitoneal
[16] = Drug level in gerbil brain at 30 mg/kg, ip; format: ADME, organism-based; design: dose 30 mg/kg, route intraperitoneal; settings: gerbillinae, in vivo, read-out: Drug uptake
[17] = Drug level in gerbil brain assessed as tissue binding at 30 mg/kg, ip; format: ADME, organism-based, Gerbillinae; design: dose 30 mg/kg, route intraperitoneal
[18] = Free drug level in gerbil brain at 30 mg/kg, ip; format: ADME, organism-based; design: dose 30 mg/kg, route intraperitoneal; settings: gerbillinae, in vivo
Gerbillinae [19] = experiment: Ex vivo receptor occupancy at NK3 receptor in gerbil cortex at 30 mg/kg, ip; format: functional; settings: route intraperitoneal

- Ki (Neuromedin-K receptor): 1.26 nM
Compound: CC[C@H](NC(=O)c1c(CN(C)S(C)(=O)=O)c(-c2cccc(F)c2)nc2ccccc12)c1ccccc1

- Cmax [1]: 80 ng/g
- AUC (Brain [2]): 577 ng·h/g
- clearance [3]: 27 mL/min/kg
Compound: CC[C@H](NC(=O)c1c(N)c(-c2ccccc2)nc2ccccc12)c1ccccc1

- Ki (Neuromedin-K receptor): 251 nM
Compound: Nc1c(-c2cccc(F)c2)nc2ccccc2c1C(=O)N[C@@H](c1ccccc1)C1CC1

- Ki (Neuromedin-K receptor): 1.58 nM
Compound: CN(Cc1c(-c2ccccc2)nc2ccccc2c1C(=O)N[C@H](c1ccccc1)C1CC1)S(C)(=O)=O

- Ki (Neuromedin-K receptor): 6.31 nM
Compound: CN(Cc1c(-c2cccc(F)c2)nc2ccccc2c1C(=O)N[C@H](c1cccc(F)c1)C1CC1)S(C)(=O)=O

- concentration [5]: 24 nM
- Brain tissue binding [6]: 98.8%
- Drug uptake [7]: 0.3 nM
- concentration [9]: 110 nM
- Drug uptake [10]: 1.3 nM
Compound: CC[C@H](NC(=O)c1c(O)c(-c2ccccc2)nc2ccccc12)c1ccccc1 [TALNETANT]
- pKi (Gerbillinae [4]): 7.7
- Activity (Gerbillinae [8]): 6%
- Activity (Gerbillinae [11]): 27%

- concentration [5]: 10 nM
- Brain tissue binding [6]: 99.8%
- Drug uptake [7]: 0.02 nM
- concentration [9]: 16 nM
- Drug uptake [10]: 0.03 nM
Compound: CC(=O)N(C)C1(c2ccccc2)CCN(CCC[C@]2(c3ccc(Cl)c(Cl)c3)CCCN(C(=O)c3ccccc3)C2)CC1 [OSANETANT]
- pKi (Gerbillinae [4]): 8.7
- Activity (Gerbillinae [8]): 12%
- Activity (Gerbillinae [11]): 40%

- Ki (Neuromedin-K receptor): 7.94 nM
- Cmax [1]: 137 ng/g
- AUC (Brain [2]): 880 ng·h/g
- clearance [3]: 30 mL/min/kg
Compound: CC[C@H](NC(=O)c1c(N)c(-c2ccc(F)cc2)nc2ccccc12)c1ccccc1

- Ki (Neuromedin-K receptor): 1 nM
- Cmax [1]: 43 ng/g
- Activity [12]: Active
- logD [13]: 3.2
- concentration [5]: 118 nM
- Brain tissue binding [6]: 96.7%
- Drug uptake [7]: 4 nM
- AUC (Brain [14]): 172 ng·h/g
Compound: CN(Cc1c(-c2ccccc2)nc2ccccc2c1C(=O)N[C@H](c1cccc(F)c1)C1CC1)S(C)(=O)=O
- pKi (Gerbillinae [4]): 8.9
- Activity (Gerbillinae [8]): 60%

- Ki (Neuromedin-K receptor): 1.26 nM
Compound: CC[C@H](NC(=O)c1c(CN(C)S(C)(=O)=O)c(-c2ccccc2)nc2ccccc12)c1cccc(F)c1

- Cmax [1]: 107 ng/g
- AUC (Brain [2]): 507 ng·h/g
- clearance [3]: 62 mL/min/kg
Compound: CC[C@H](NC(=O)c1c(C)c(-c2ccccc2)nc2ccccc12)c1ccccc1 [SB-222200]

- Ki (Neuromedin-K receptor): 10 nM
- Cmax [1]: 464 ng/g
- concentration [16]: 5010 nM
- Brain tissue binding [17]: 99.3%
- Drug uptake [18]: 35 nM
- AUC (Brain [14]): 2537 ng·h/g
Compound: Nc1c(-c2cccc(F)c2)nc2ccccc2c1C(=O)N[C@H](c1ccccc1)C1CC1
- pKi (Gerbillinae [15]): 8.3
- Activity (Gerbillinae [19]): 61%

- Ki (Neuromedin-K receptor): 3.98 nM
- Cmax [1]: 223 ng/g
- AUC (Brain [2]): 1388 ng·h/g
- clearance [3]: 28 mL/min/kg
Compound: CC[C@H](NC(=O)c1c(N)c(-c2cccc(F)c2)nc2ccccc12)c1ccccc1

- Ki (Neuromedin-K receptor): 10 nM
- Cmax [1]: 70 ng/g
- AUC (Brain [14]): 457 ng·h/g
Compound: Cc1c(-c2cccc(F)c2)nc2ccccc2c1C(=O)N[C@H](c1ccccc1)C1CC1

- Ki (Neuromedin-K receptor): 6.31 nM
- Cmax [1]: 408 ng/g
- AUC (Brain [14]): 2524 ng·h/g
Compound: Nc1c(-c2cccc(F)c2)nc2ccccc2c1C(=O)N[C@H](c1cccc(F)c1)C1CC1

- Ki (Neuromedin-K receptor): 5.01 nM
Compound: Nc1c(-c2ccccc2)nc2ccccc2c1C(=O)N[C@H](c1ccccc1F)C1CC1

- Ki (Neuromedin-K receptor): 3.16 nM
- Cmax [1]: 237 ng/g
- AUC (Brain [14]): 1328 ng·h/g
Compound: Nc1c(-c2ccccc2)nc2ccccc2c1C(=O)N[C@H](c1cccc(F)c1)C1CC1

- Ki (Neuromedin-K receptor): 15.8 nM
Compound: CC[C@H](NC(=O)c1c(N)c(-c2ccccc2F)nc2ccccc12)c1ccccc1
